Assay results reported in patent publication US20240199546A1, “INHIBITORS OF SOLUTE CARRIER FAMILY 6A MEMBER 19 (SLC6A19) AND METHODS OF USE THEREOF” (Maze Therapeutics, Inc., priority 2022, published 2024).

Biological target: T1, human SLC6A19 and TMEM27 (Homo sapiens, UniProt Q695T7)
T1 construct: expressed in transfected cells
T1 sequence (Q695T7 1-634): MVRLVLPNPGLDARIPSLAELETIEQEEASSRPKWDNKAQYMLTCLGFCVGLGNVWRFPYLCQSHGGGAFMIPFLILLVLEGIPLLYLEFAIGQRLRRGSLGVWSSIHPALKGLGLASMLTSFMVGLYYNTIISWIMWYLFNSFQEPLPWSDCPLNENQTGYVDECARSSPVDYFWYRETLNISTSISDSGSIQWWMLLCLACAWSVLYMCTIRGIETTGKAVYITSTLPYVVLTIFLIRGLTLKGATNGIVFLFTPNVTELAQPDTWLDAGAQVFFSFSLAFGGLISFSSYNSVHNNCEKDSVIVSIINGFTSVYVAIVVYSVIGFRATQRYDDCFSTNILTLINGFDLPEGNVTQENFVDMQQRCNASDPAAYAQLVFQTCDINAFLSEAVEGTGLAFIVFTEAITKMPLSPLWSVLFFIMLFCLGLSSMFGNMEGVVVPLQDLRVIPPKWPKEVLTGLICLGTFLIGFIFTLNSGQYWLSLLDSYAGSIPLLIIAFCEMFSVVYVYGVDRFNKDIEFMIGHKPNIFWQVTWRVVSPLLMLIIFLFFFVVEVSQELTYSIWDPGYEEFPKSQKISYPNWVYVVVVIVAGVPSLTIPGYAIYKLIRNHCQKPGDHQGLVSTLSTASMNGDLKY
T1 sequence (Q9HBJ8 15-222 partner): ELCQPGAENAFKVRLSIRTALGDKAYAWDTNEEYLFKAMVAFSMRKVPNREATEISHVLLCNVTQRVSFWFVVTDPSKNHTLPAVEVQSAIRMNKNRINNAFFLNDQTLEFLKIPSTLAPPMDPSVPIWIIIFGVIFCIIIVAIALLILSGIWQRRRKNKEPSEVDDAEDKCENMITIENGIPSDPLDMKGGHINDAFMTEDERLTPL
Assay: Radiolabelled (3H) leucine uptake in CHO cells with doxycycline-inducible expression of human SLC6A19 and TMEM27 (Example B-1)
Format: cell-based
Conditions: CHO cells with doxycycline-inducible expression of human SLC6A19 and TMEM27, read-out: SLC6A19_Radioligand Uptake Assay IC50
How it was run: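 CHO cells were induced with doxycycline for 18 h at 37 °C, washed in HBSS, then exposed to compounds for 1 h: 8-point, 3-fold dilutions in duplicate, 0.5% DMSO final. Uptake measured by scintillation counting after 2 h shaking. Activity normalized with positive control as 0% and DMSO as 100%.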

Row | Compound | IC50
1 | CC(C)C(=O)NCc1cc2cc(F)c(OCc3ccon3)cc2[nH]1 [Compound 138, N-((5-fluoro-6-(isoxazol-3-ylmethoxy)-1H-indol-2-yl)methyl)isobutyramide] | 353 nM
2 | O=C(NCc1cc2cc(F)c(OCc3ccon3)cc2[nH]1)C1(C(F)(F)F)CC1 [Compound 139, N-((5-fluoro-6-(isoxazol-3-ylmethoxy)-1H-indol-2-yl)methyl)-1-(trifluoromethyl)cyclopropane-1-carboxamide] | 310 nM
3 | O=C(NCc1cc2cc(F)c(OCc3ccon3)cc2[nH]1)C1CC1 [Compound 140, N-((5-fluoro-6-(isoxazol-3-ylmethoxy)-1H-indol-2-yl)methyl)cyclopropanecarboxamide] | 148 nM
4 | CC(=O)NCc1cc2cc(Cl)c(OCc3cscn3)cc2[nH]1 [Compound 141, N-((5-chloro-6-(thiazol-4-ylmethoxy)-1H-indol-2-yl)methyl)acetamide] | 87 nM
5 | CC(=O)NCc1cc2cc(Cl)c(OCc3cc(C)on3)cc2[nH]1 [Compound 142, N-((5-chloro-6-((5-methylisoxazol-3-yl)methoxy)-1H-indol-2-yl)methyl)acetamide] | 69 nM
6 | CC(=O)NCc1cc2cc(Cl)c(OCc3ccon3)cc2[nH]1 [Compound 143, N-((5-chloro-6-(isoxazol-3-ylmethoxy)-1H-indol-2-yl)methyl)acetamide] | 182 nM
7 | O=C(NCc1cc2cc(Cl)c(OCc3cscn3)cc2[nH]1)C1(C(F)(F)F)CC1 [Compound 144, N-((5-chloro-6-(thiazol-4-ylmethoxy)-1H-indol-2-yl)methyl)-1-(trifluoromethyl)cyclopropane-1-carboxamide] | 119 nM
8 | Cc1cc(CC(C)c2ccc3cc(CNC(=O)C4(C)CC4)[nH]c3c2)no1 (stereo not drawn) [Compound 153, 1-methyl-N-((6-(1-(5-methylisoxazol-3-yl)propan-2-yl)-1H-indol-2-yl)methyl) cyclopropane-1-carboxamide] | 1960 nM
9 | CCc1cc(COc2ccc3cc(CNC(=O)C4(C)CC4)[nH]c3c2)no1 [Compound 185, N-((6-((5-ethylisoxazol-3-yl)methoxy)-1H-indol-2-yl)methyl)-1-methylcyclopropane-1-carboxamide] | 1050 nM
10 | CC(C)c1cc2cc(CNC(=O)C3(C)CC3)[nH]c2cc1OCc1cscn1 [Compound 186, N-((5-isopropyl-6-(thiazol-4-ylmethoxy)-1H-indol-2-yl)methyl)-1-methylcyclopropane-1-carboxamide] | 968 nM
11 | CC1(C(=O)NCc2cc3ccc(OCC45CC(C4)C5)cc3[nH]2)CC1 [Compound 189, N-((6-(bicyclo[1.1.1]pentan-1-ylmethoxy)-1H-indol-2-yl)methyl)-1-methylcyclopropane-1-carboxamide] | 9830 nM
12 | CC1(C(=O)NCc2cc3ccc(OCc4ccc5ccoc5c4)cc3[nH]2)CC1 [Compound 192, N-((6-(benzofuran-6-ylmethoxy)-1H-indol-2-yl)methyl)-1-methylcyclopropane-1-carboxamide] | 2510 nM
13 | CC1(C(=O)NCc2cc3ccc(OCCC45CC(C4)C5)cc3[nH]2)CC1 [Compound 193, N-((6-(2-(bicyclo[1.1.1]pentan-1-yl)ethoxy)-1H-indol-2-yl)methyl)-1-methylcyclopropane-1-carboxamide] | 9880 nM
14 | Cc1cc(C(C)Cc2ccc3cc(CNC(=O)C4(C)CC4)[nH]c3c2)no1 (stereo not drawn) [Compound 195, 1-methyl-N-((6-(2-(5-methylisoxazol-3-yl)propyl)-1H-indol-2-yl)methyl)cyclopropanecarboxamide] | 14800 nM
15 | CC1(C(=O)NCc2cc3cc(Cl)c(SCc4ccon4)cc3[nH]2)CC1 [Compound 197, N-((5-chloro-6-((isoxazol-3-ylmethyl)thio)-1H-indol-2-yl)methyl)-1-methylcyclo propanecarboxamide] | 154 nM
16 | CC1(C(=O)NCc2cc3cc(Cl)c(OCc4cccc(O)c4)cc3[nH]2)CC1 [Compound 198, N-((5-chloro-6-((3-hydroxybenzyl)oxy)-1H-indol-2-yl)methyl)-1-methylcyclopropane-1-carboxamide] | 2050 nM
17 | O=C(NCc1cc2ccc(OCc3ccon3)cc2[nH]1)N1CCOCC1 [Compound 199, N-((6-(isoxazol-3-ylmethoxy)-1H-indol-2-yl)methyl)morpholine-4-carboxamide] | 1370 nM
18 | O=C(NCc1cc2ccc(OCc3ccon3)cc2[nH]1)N1CCC(F)C1 (stereo not drawn) [Compound 200, 3-fluoro-N-((6-(isoxazol-3-ylmethoxy)-1H-indol-2-yl)methyl)pyrrolidine-1-carboxamide] | 752 nM
19 | CC1(C(=O)NCc2cc3ccc(OCc4ccon4)c(F)c3[nH]2)CC1 [Compound 201, N-((7-fluoro-6-(isoxazol-3-ylmethoxy)-1H-indol-2-yl)methyl)-1-methylcyclopropane-1-carboxamide] | 5070 nM
20 | CCc1cc2cc(CNC(=O)C3(C)CC3)[nH]c2cc1OCc1cscn1 [Compound 202, N-((5-ethyl-6-(thiazol-4-ylmethoxy)-1H-indol-2-yl)methyl)-1-methylcyclopropane-1-carboxamide] | 1560 nM
21 | CC1(C(=O)NCc2cc3cc(Cl)c(OCc4ccccc4O)cc3[nH]2)CC1 [Compound 203, N-((5-chloro-6-((2-hydroxybenzyl)oxy)-1H-indol-2-yl)methyl)-1-methylcyclopropane-1-carboxamide] | 1090 nM
22 | CC(C)c1cc2cc(CNC(=O)C3(C)CC3)[nH]c2cc1OCc1ccon1 [Compound 204, N-((5-isopropyl-6-(isoxazol-3-ylmethoxy)-1H-indol-2-yl)methyl)-1-methylcyclopropane-1-carboxamide] | 536 nM
23 | CC(=O)NCc1cc2cc(Cl)c(OCc3cocn3)cc2[nH]1 [Compound 206, N-((5-chloro-6-(oxazol-4-ylmethoxy)-1H-indol-2-yl)methyl)acetamide] | 217 nM
24 | CC(=O)NCc1cc2cc(F)c(OCc3ccon3)cc2[nH]1 [Compound 207, N-((5-fluoro-6-(isoxazol-3-ylmethoxy)-1H-indol-2-yl)methyl)acetamide] | 926 nM
25 | CC(=O)NCc1cc2cc(F)c(OCc3cscn3)cc2[nH]1 [Compound 208, N-((5-fluoro-6-(thiazol-4-ylmethoxy)-1H-indol-2-yl)methyl)acetamide] | 133 nM
26 | CNC(=O)NCc1cc2cc(F)c(OCc3cc(C)no3)cc2[nH]1 [Compound 210, 1-((5-fluoro-6-((3-methylisoxazol-5-yl)methoxy)-1H-indol-2-yl)methyl)-3-methylurea] | 293 nM
27 | CNC(=O)NCc1cc2cc(F)c(OCc3cc(C)on3)cc2[nH]1 [Compound 212, 1-((5-fluoro-6-((5-methylisoxazol-3-yl)methoxy)-1H-indol-2-yl)methyl)-3-methylurea] | 429 nM
28 | CNC(=O)NCc1cc2cc(Cl)c(OCc3cc(C)on3)cc2[nH]1 [Compound 213, 1-((5-chloro-6-((5-methylisoxazol-3-yl)methoxy)-1H-indol-2-yl)methyl)-3-methylurea] | 192 nM
29 | CC(=O)NCc1cc2cc(F)c(OCc3cocn3)cc2[nH]1 [Compound 224, N-((5-fluoro-6-(oxazol-4-ylmethoxy)-1H-indol-2-yl)methyl)acetamide] | 545 nM
30 | Cc1cc(COc2cc3[nH]c(CNC(=O)CC4(O)CC4)cc3cc2Cl)on1 [Compound 237, N-((5-chloro-6-((3-methylisoxazol-5-yl)methoxy)-1H-indol-2-yl)methyl)-2-(1-hydroxycyclopropyl)acetamide] | 1410 nM
